According to PubChem BioAssay AID330 (DTP/NCI, 2004):
“And” between values parts separate entries of the source, which are not always exact repeats. Equal entries are not always repeated. Inconclusive results and toxic doses are left out.

Tested on: P388 leukemia ip, CD2F1 mice, survival T/C
Assay: NCI In Vivo Anticancer Drug Screen. Data for tumor model P388 Leukemia (intraperitoneal) in CD2F1 (CDF1) mice
Conditions: endpoint: median survival time, higher = longer survival
In short: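 Mice carrying the transplanted tumor received test compound or vehicle. Survival was recorded in each group, and the value is the treated-group measurement divided by that of the vehicle-treated control group.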

[1] = dose: 25.0 mg/kg/injection, schedule: Q01DX001 (ip), vehicle: saline with Tween-80
[2] = dose: 50.0 mg/kg/injection, schedule: Q01DX001 (ip), vehicle: saline with Tween-80
[3] = dose: 50.0 mg/kg/injection, schedule: Q01DX009 (ip), vehicle: Klucel (hydroxypropylcellulose) (HPC)
[4] = dose: 100.0 mg/kg/injection, schedule: Q01DX009 (ip), vehicle: Klucel (hydroxypropylcellulose) (HPC)
[5] = dose: 200.0 mg/kg/injection, schedule: Q01DX009 (ip), vehicle: Klucel (hydroxypropylcellulose) (HPC)

In the case of CCOC(=O)C1CSCN1 (stereo unspecified), the T/C (dose: 25.0 mg/kg/injection, schedule: Q01DX009 (ip), vehicle: saline) is reported as 97 % of control, the T/C (dose: 50.0 mg/kg/injection, schedule: Q01DX009 (ip), vehicle: saline) is reported as 95 % of control and the T/C (dose: 100.0 mg/kg/injection, schedule: Q01DX009 (ip), vehicle: saline) is reported as 100 % of control. The T/C (dose: 200.0 mg/kg/injection, schedule: Q01DX009 (ip), vehicle: saline) was 100 % of control.
In the case of c1ccc2c(c1)NCCOCCNc1ccccc1OCCNCCO2, the T/C [1] is reported as 100 % of control, the T/C [2] is reported as 96 % of control and the T/C (dose: 100.0 mg/kg/injection, schedule: Q01DX001 (ip), vehicle: saline with Tween-80) is reported as 89 % of control and 92 % of control.
COc1cccc2c1C(=O)c1c(OC)c3c(c(OC)c1C2=O)C[C@@](O)(C(C)=O)C[C@@H]3OC1CC(N)C(O)C(C)O1 (stereo partly specified) was tested, and the T/C (dose: 0.5 mg/kg/injection, schedule: Q01DX009 (ip), vehicle: water) was 103 % of control, the T/C (dose: 1.0 mg/kg/injection, schedule: Q01DX009 (ip), vehicle: water) was 110 % of control and the T/C (dose: 2.0 mg/kg/injection, schedule: Q01DX009 (ip), vehicle: water) was 102 % of control. For the same molecule, the T/C (dose: 4.0 mg/kg/injection, schedule: Q01DX009 (ip), vehicle: water) was 106 % of control, the T/C (dose: 8.0 mg/kg/injection, schedule: Q01DX009 (ip), vehicle: water) was 114 % of control and 119 % of control and the T/C (dose: 16.0 mg/kg/injection, schedule: Q01DX009 (ip), vehicle: water) was 111 % of control and 123 % of control. For the same molecule, the T/C (dose: 128.0 mg/kg/injection, schedule: Q01DX009 (ip), vehicle: water) was 169 % of control.
Cc1ccc(C(=O)Cc2ccccc2C#N)cc1 was tested, and the T/C (dose: 12.5 mg/kg/injection, schedule: Q01DX005 (ip), vehicle: Klucel (hydroxypropylcellulose) (HPC)) was 102 % of control and 103 % of control, the T/C (dose: 25.0 mg/kg/injection, schedule: Q01DX005 (ip), vehicle: Klucel (hydroxypropylcellulose) (HPC)) was 88 % of control and 97 % of control and the T/C (dose: 50.0 mg/kg/injection, schedule: Q01DX005 (ip), vehicle: Klucel (hydroxypropylcellulose) (HPC)) was 97 % of control. For the same molecule, the T/C (dose: 100.0 mg/kg/injection, schedule: Q01DX005 (ip), vehicle: Klucel (hydroxypropylcellulose) (HPC)) was 105 % of control.
CC(C)=CCC/C(C)=C/CC/C(C)=C/CC/C(C)=C/C=C/C=C(\C)CC/C=C(\C)CC/C=C(\C)CCC=C(C)C was tested, and the T/C (dose: 17.5 mg/kg/injection, schedule: Q01DX005 (ip), vehicle: saline) was 101 % of control, the T/C (dose: 35.0 mg/kg/injection, schedule: Q01DX005 (ip), vehicle: saline) was 100 % of control and the T/C (dose: 70.0 mg/kg/injection, schedule: Q01DX005 (ip), vehicle: saline) was 95 % of control. For the same molecule, the T/C (dose: 140.0 mg/kg/injection, schedule: Q01DX005 (ip), vehicle: saline) was 104 % of control.
In the case of CC(C)N1CC(CCN2CCOCC2)C(c2ccccc2)(C2CCCC2)C1=O (stereo unspecified), the T/C [3] is reported as 106 % of control, the T/C [4] is reported as 101 % of control and the T/C [5] is reported as 108 % of control.
CCOC(=O)C1(c2cc(NS(=O)(=O)c3ccccc3)ccc2O)CCCCC1=O (stereo unspecified) was tested, and the T/C (dose: 12.5 mg/kg/injection, schedule: Q01DX001 (ip), vehicle: saline with Tween-80) was 104 % of control, the T/C [1] was 104 % of control and the T/C [2] was 100 % of control.
With Cc1ccc(Cl)c(NC(=S)NCc2cccnc2)c1 the T/C [3] was 97 % of control, the T/C [4] was 103 % of control and the T/C [5] was 108 % of control.
In the case of CC1(C)N=C(N)N=C(N)N1c1ccc(C(C#N)CCCc2ccccc2)cc1 (stereo unspecified), the T/C (dose: 7.5 mg/kg/injection, schedule: Q01DX005 (ip), vehicle: Klucel (hydroxypropylcellulose) (HPC)) is reported as 100 % of control, the T/C (dose: 15.0 mg/kg/injection, schedule: Q01DX005 (ip), vehicle: Klucel (hydroxypropylcellulose) (HPC)) is reported as 101 % of control and the T/C (dose: 30.0 mg/kg/injection, schedule: Q01DX005 (ip), vehicle: Klucel (hydroxypropylcellulose) (HPC)) is reported as 103 % of control.
With CCOC(=O)/C(C#N)=C1/CCCN1C the T/C (dose: 100.0 mg/kg/injection, schedule: Q04DX003 (ip), vehicle: Klucel (hydroxypropylcellulose) (HPC)) was 107 % of control and the T/C (dose: 200.0 mg/kg/injection, schedule: Q04DX003 (ip), vehicle: Klucel (hydroxypropylcellulose) (HPC)) was 109 % of control.
